The text below walks through data of PubChem BioAssay AID248 (DTP/NCI, 2004).

This assay relates to L1210 leukemia ip in BDF1 mice, survival T/C. Briefly: NCI In Vivo Anticancer Drug Screen. Data for tumor model L1210 Leukemia (intraperitoneal) in B6D2F1 (BDF1) mice. The settings on record: higher = longer survival. An outline of the steps:
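Mice bearing the transplanted tumor received compound or vehicle. Survival of the treated group was divided by that of the vehicle-treated control group to give the ratio.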

Where [1] appears, read: endpoint: mean survival time, dose: 100.0 mg/kg/injection, schedule: Q04DX003 (ip), vehicle: Klucel (hydroxypropylcellulose) (HPC).
Where [2] appears, read: endpoint: mean survival time, dose: 200.0 mg/kg/injection, schedule: Q04DX003 (ip), vehicle: Klucel (hydroxypropylcellulose) (HPC).
The mark [3] stands for this setting: endpoint: mean survival time, dose: 400.0 mg/kg/injection, schedule: Q04DX003 (ip), vehicle: Klucel (hydroxypropylcellulose) (HPC).
Setting [4] is: endpoint: mean survival time, dose: 50.0 mg/kg/injection, schedule: Q01DX001 (ip), vehicle: carboxymethylcellulose (CMC).
[5] abbreviates: endpoint: mean survival time, dose: 100.0 mg/kg/injection, schedule: Q01DX001 (ip), vehicle: carboxymethylcellulose (CMC).
The mark [6] stands for this setting: endpoint: mean survival time, dose: 200.0 mg/kg/injection, schedule: Q01DX001 (ip), vehicle: carboxymethylcellulose (CMC).
Where [7] appears, read: endpoint: mean survival time, dose: 400.0 mg/kg/injection, schedule: Q01DX001 (ip), vehicle: carboxymethylcellulose (CMC).
The mark [8] stands for this setting: endpoint: mean survival time, dose: 100.0 mg/kg/injection, schedule: Q04DX002 (ip), vehicle: saline.

SMILES strings stand for the structures. Several values for one entry are separate records, joined by “and”; a condition that tells them apart may be missing. Equal entries are not always repeated. Toxic doses and inconclusive results are not listed.

Take `C1CC2CCC[N]3C2C(C1)[O][Pb]31[O]C2CCCC3CCC[N]1C32` (centres undefined): the T/C by setting is: (endpoint: mean survival time, dose: 30.0 mg/kg/injection, schedule: Q01DX015 (ip), vehicle: carboxymethylcellulose (CMC)) 91 % of control; (endpoint: mean survival time, dose: 60.0 mg/kg/injection, schedule: Q01DX015 (ip), vehicle: carboxymethylcellulose (CMC)) 90 % of control; (endpoint: mean survival time, dose: 100.0 mg/kg/injection, schedule: Q01DX009 (ip), vehicle: Klucel (hydroxypropylcellulose) (HPC)) 97 % of control; under setting [1], 95 % of control; (endpoint: mean survival time, dose: 200.0 mg/kg/injection, schedule: Q01DX009 (ip), vehicle: Klucel (hydroxypropylcellulose) (HPC)) 92 % of control; under setting [2], 94 % of control. The T/C under setting [3] was 98 % of control.
In the case of `COc1ccccc1CCO`, the T/C is, setting by setting: under setting [4], 86 % of control; under setting [5], 98 % of control; under setting [6], 98 % of control; under setting [7], 98 % of control.
Take `COc1ccc2[nH]c3c(c(=O)c2c1)CCCC3`: the T/C under setting [4] is 101 % of control, the T/C under setting [5] is 95 % of control, the T/C under setting [6] is 100 % of control and the T/C under setting [7] is 97 % of control.
As to `C/C=C(\C)C(=O)O[C@@H]1c2cc3c(cc2-c2c(cc(OC)c(OC)c2OC)[C@@H]2C(=O)OC[C@@H]12)OCO3`, the T/C is 94 % of control (endpoint: mean survival time, dose: 8.0 mg/kg/injection, schedule: Q01DX009 (ip), vehicle: saline + alcohol); 108 % of control (endpoint: mean survival time, dose: 12.0 mg/kg/injection, schedule: Q01DX009 (ip), vehicle: saline + alcohol); 105 % of control (endpoint: mean survival time, dose: 18.0 mg/kg/injection, schedule: Q01DX009 (ip), vehicle: saline + alcohol); 100 % of control (endpoint: mean survival time, dose: 27.0 mg/kg/injection, schedule: Q01DX009 (ip), vehicle: saline + alcohol).
For `CN(C)CCCNCC(Cc1ccccc1)c1ccccc1` (centres undefined), the T/C under setting [8] was 93 % of control.
With `CCCCC(=O)N(CC)CC`, the T/C runs as follows: (endpoint: mean survival time, dose: 100.0 mg/kg/injection, schedule: Q01DX001 (ip), vehicle: acetone) 97 % of control; (endpoint: mean survival time, dose: 200.0 mg/kg/injection, schedule: Q01DX001 (ip), vehicle: acetone) 97 % of control.
On to `c1ccc(-c2ncc3cnccn23)cc1`, for which the T/C is, setting by setting: (endpoint: mean survival time, dose: 25.0 mg/kg/injection, schedule: Q04DX003 (ip), vehicle: saline) 100 % of control; (endpoint: mean survival time, dose: 50.0 mg/kg/injection, schedule: Q04DX003 (ip), vehicle: saline) 102 % of control; (endpoint: mean survival time, dose: 100.0 mg/kg/injection, schedule: Q04DX003 (ip), vehicle: saline) 98 % of control and 102 % of control.
Take `CC1CC(C)(C)C/C1=N/Nc1ccc([N+](=O)[O-])cc1[N+](=O)[O-]` (centres undefined): the T/C is 97 % of control (endpoint: mean survival time, dose: 100.0 mg/kg/injection, schedule: Q04DX002 (ip), vehicle: saline with Tween-80); 94 % of control (endpoint: mean survival time, dose: 200.0 mg/kg/injection, schedule: Q04DX002 (ip), vehicle: saline with Tween-80); 87 % of control (endpoint: mean survival time, dose: 400.0 mg/kg/injection, schedule: Q04DX002 (ip), vehicle: saline with Tween-80).
Turning to `CC[n+]1ccc(Nc2ccc(NC(=O)c3ccc(Nc4cc[n+](CC)c5ccc([N+](=O)[O-])cc45)cc3)cc2)cc1`, the T/C was 114 % of control (endpoint: mean survival time, dose: 4.13 mg/kg/injection, schedule: Q04DX003 (ip), vehicle: saline sonified); 117 % of control (endpoint: mean survival time, dose: 4.5 mg/kg/injection, schedule: Q01DX009 (ip), vehicle: Klucel (hydroxypropylcellulose) (HPC)); 108 % of control (endpoint: mean survival time, dose: 6.25 mg/kg/injection, schedule: Q04DX003 (ip), vehicle: Klucel (hydroxypropylcellulose) (HPC)); 117 % of control (endpoint: mean survival time, dose: 6.25 mg/kg/injection, schedule: Q04DX003 (ip), vehicle: saline sonified); 115 % of control (endpoint: mean survival time, dose: 9.38 mg/kg/injection, schedule: Q04DX003 (ip), vehicle: saline sonified); 117 % of control (endpoint: mean survival time, dose: 10.44 mg/kg/injection, schedule: Q01DX009 (ip), vehicle: saline with Tween-80). For the same compound, the T/C (endpoint: mean survival time, dose: 11.0 mg/kg/injection, schedule: Q01DX009 (ip), vehicle: saline) was 115 % of control; the T/C (endpoint: mean survival time, dose: 12.5 mg/kg/injection, schedule: Q01DX001 (ip), vehicle: Klucel (hydroxypropylcellulose) (HPC)) is 100 % of control; the T/C (endpoint: mean survival time, dose: 12.5 mg/kg/injection, schedule: Q04DX003 (ip), vehicle: Klucel (hydroxypropylcellulose) (HPC)) is 112 % of control; the T/C (endpoint: mean survival time, dose: 16.5 mg/kg/injection, schedule: Q01DX009 (ip), vehicle: Klucel (hydroxypropylcellulose) (HPC)) is 175 % of control; the T/C (endpoint: mean survival time, dose: 25.0 mg/kg/injection, schedule: Q01DX001 (ip), vehicle: Klucel (hydroxypropylcellulose) (HPC)) is 102 % of control; the T/C (endpoint: mean survival time, dose: 25.0 mg/kg/injection, schedule: Q01DX009 (ip), vehicle: Klucel (hydroxypropylcellulose) (HPC)) was 160 % of control. Also, the T/C was 230 % of control (endpoint: mean survival time, dose: 25.0 mg/kg/injection, schedule: Q01DX009 (ip), vehicle: saline sonified); 160 % of control (endpoint: mean survival time, dose: 25.0 mg/kg/injection, schedule: Q01DX009 (ip), vehicle: saline); 122 % of control (endpoint: mean survival time, dose: 25.0 mg/kg/injection, schedule: Q04DX003 (ip), vehicle: Klucel (hydroxypropylcellulose) (HPC)); 184 % of control (endpoint: mean survival time, dose: 37.5 mg/kg/injection, schedule: Q01DX009 (ip), vehicle: saline).
Take `CCCCCCOC(=O)C1(C)OC1c1ccccc1` (centres undefined): the T/C under setting [8] is 112 % of control; the T/C (endpoint: mean survival time, dose: 200.0 mg/kg/injection, schedule: Q04DX002 (ip), vehicle: saline) is 104 % of control; the T/C (endpoint: mean survival time, dose: 400.0 mg/kg/injection, schedule: Q04DX002 (ip), vehicle: saline) was 93 % of control.
For the compound `O=[N+]([O-])c1ccc(C2ON2C2CCCCC2)cc1` (centres undefined), the T/C was 87 % of control under setting [5] and 108 % of control under setting [7].
As for `Nc1ccc(C(=O)C(=O)c2ccc(N)cc2)cc1`, the T/C was 102 % of control (endpoint: mean survival time, dose: 75.0 mg/kg/injection, schedule: Q01DX001 (ip), vehicle: acetone) and 94 % of control (endpoint: mean survival time, dose: 150.0 mg/kg/injection, schedule: Q01DX001 (ip), vehicle: acetone).
For `Nc1ccn(C2OC(COP(=O)(O)O)C(O)C2O)c(=O)n1` (centres undefined), the T/C was 108 % of control (endpoint: mean survival time, dose: 2.5 mg/kg/injection, schedule: Q01DX009 (ip), vehicle: other); 96 % of control (endpoint: mean survival time, dose: 5.0 mg/kg/injection, schedule: Q01DX009 (ip), vehicle: other); 116 % of control (endpoint: mean survival time, dose: 10.0 mg/kg/injection, schedule: Q01DX009 (ip), vehicle: other); 193 % of control (endpoint: mean survival time, dose: 18.0 mg/kg/injection, schedule: Q01DX Z (ip), vehicle: saline); 195 % of control (endpoint: mean survival time, dose: 26.5 mg/kg/injection, schedule: Q01DX Z (ip), vehicle: saline); 218 % of control (endpoint: mean survival time, dose: 40.0 mg/kg/injection, schedule: Q01DX Z (ip), vehicle: saline). In addition, the T/C by setting is: (endpoint: mean survival time, dose: 60.0 mg/kg/injection, schedule: Q01DX Z (ip), vehicle: saline) 157 % of control; (endpoint: median survival time, dose: 22.0 mg/kg/injection, schedule: Q01DX009 (ip), vehicle: sodium bicarbonate) 171 % of control; (endpoint: median survival time, dose: 33.0 mg/kg/injection, schedule: Q01DX009 (ip), vehicle: sodium bicarbonate) 177 % of control; (endpoint: median survival time, dose: 46.0 mg/kg/injection, schedule: Q01DX009 (ip), vehicle: sodium bicarbonate) 177 % of control; (endpoint: median survival time, dose: 66.0 mg/kg/injection, schedule: Q01DX009 (ip), vehicle: sodium bicarbonate) 181 % of control.
For `N#CC(c1ccccc1)C(c1ccccc1)c1ccccc1` (centres undefined), the T/C by setting is: (endpoint: mean survival time, dose: 50.0 mg/kg/injection, schedule: Q01DX001 (ip), vehicle: saline) 102 % of control; (endpoint: mean survival time, dose: 100.0 mg/kg/injection, schedule: Q01DX001 (ip), vehicle: saline) 102 % of control; (endpoint: mean survival time, dose: 200.0 mg/kg/injection, schedule: Q01DX001 (ip), vehicle: saline) 98 % of control; (endpoint: mean survival time, dose: 400.0 mg/kg/injection, schedule: Q01DX001 (ip), vehicle: saline) 98 % of control.
Regarding `CCCCCCCCCCCCCCOc1ccc(C(=S)N2CCOCC2)cc1OC`, the T/C is, setting by setting: under setting [1], 100 % of control; under setting [2], 100 % of control; under setting [3], 94 % of control.
`NN=C1CCC(=NN)CC1`: the T/C was 101 % of control (endpoint: mean survival time, dose: 25.0 mg/kg/injection, schedule: Q01DX009 (ip), vehicle: water); 109 % of control (endpoint: mean survival time, dose: 25.0 mg/kg/injection, schedule: Q04DX003 (ip), vehicle: water); 114 % of control (endpoint: mean survival time, dose: 50.0 mg/kg/injection, schedule: Q01DX009 (ip), vehicle: water); 109 % of control (endpoint: mean survival time, dose: 50.0 mg/kg/injection, schedule: Q04DX003 (ip), vehicle: water); 114 % of control and 124 % of control (endpoint: mean survival time, dose: 100.0 mg/kg/injection, schedule: Q04DX003 (ip), vehicle: water).
